pIC50: −log10 of the molar value.
Key:
[1] = test system: TNF-α; experiment: In vitro measurement of TNF-α in human whole blood; assay type: cell-based
Procedure: In Vitro Measurement of TNF-α in Human Whole Blood
This assay determines the effect of test compounds on the production of TNF-α in human whole blood. Compounds were tested for their ability to inhibit the activity of TNF-α in whole blood.
Heparanised blood from a healthy human volunteer was collected and diluted with RPMI 1640 incomplete medium (1:5 dilution). Diluted blood was aliquoted into 96 well plate 170 ul/well immediately. 20 ul of the drug of different concentrations was added to the respective wells with a control. The plate was incubated in 37° C. thermo mixer at 400 rpm for 60-70 minutes. After the incubation 10 ul of the LPS (from E. coli B4) was added to get the final concentration of 1 ug/well. The plate was again incubated in the 37° C. thermo mixer at 400 rpm 120 minutes in the thermo mixer and then left in the 37° C. CO2 incubator for two more hours so that the total stimulation time is four hours. The plasma was collected carefully without disturbing the pellet at the bottom and stored at −20° C. Then TNF-α levels were estimated using the R&D systems ELISA kit duoset kit (DY210).

[2] = test system: LPS induced neutrophilia; experiment: LPS induced neutrophilia model for asthma and COPD; assay type: in vivo; conditions: Wistar rats, BAL 4 h after LPS
Procedure: LPS Induced Neutrophilia Model for Asthma and COPD LPS induced neutrophilia in Wistar rats was performed using the protocol described in Pulm Pharmacol & Ther 17, 3, 133-140, 2004. Male Wistar rats were acclimatized to laboratory conditions five to seven days prior to the start of the experiment. They were randomly distributed to various groups based on body weight. Except normal group all the animals were exposed to LPS 100 μg/ml for 40 min. The rats were dosed with the test compound suspended in the vehicle containing 0.25% carboxymethylcellulose before half an hour of LPS exposure. BAL was performed 4 h after LPS exposure, total cell count and DLC was done and compared with control and the standard drug. Percentage Inhibition for neutrophilia was calculated.

[3] = test system: TNF-α; experiment: In vitro measurement of TNF-α in human PBMC; assay type: cell-based
Procedure: In Vitro Measurement of TNF-α in Human Peripheral Blood Mononuclear Cells
This assay determines the effect of test compounds on the production of TNF a in human Peripheral Blood Mononuclear Cells (PBMC). Compounds were tested for their ability to inhibit the activity of TNF α in human PBMC. PBMC were isolated from blood (of healthy volunteers) using BD Vacutainer CPT™ (Cell preparation tube, BD Bio Science) and suspended in RPMI medium (Physiol. Res. 52, 593-598, 2003). The test compounds were pre-incubated with PBMC (0.5 million/incubation well) for 15 minutes at 37° C. and then stimulated with Lipopolysaccharide (Escherichia coli: B4; 1 μg/ml) for 18 hours at 37° C. in 5% CO2. The levels of TNF-α in the cell culture medium were estimated using enzyme-linked immunosorbent assay performed in a 96 well format as per the procedure of the manufacturer (Cayman Chemical, Ann Arbor, USA).

[4] = test system: PDE4; experiment: PDE4 activity (source human U937 cells); assay type: biochemical; conditions: read-out: PDE4 inhibition IC50 (nm)
Procedure: PDE4 inhibition was measured by following a literature assay procedure (Cortizo J et al., Br J. Pharmacol., 1993, 108: 562-568. The assay method involves the following conditions.
Substrate: 1.01 μM [^3H] camp+camp
Pre-Incubation Time/Temperature: 15 minutes at 25° C.
Incubation Time/Temperature. 20 minutes at 25° C.
Incubation buffer: 50 mM Tris-HCl, pH 7.5, 5 mM MgCl2
Quantitation method: Quantitation of [^3H] Adenosine
Significance criteria: ≧50% of max stimulation or inhibition

[5] = test system: TNF-α; experiment: LPS induced sepsis for measurement of TNF-α inhibition in mice; assay type: in vivo; conditions: Mus musculus; TNF alpha inhibition in mice sepsis model
Procedure: LPS Induced Sepsis for Measurement of TNF-α Inhibition in Mice
The LPS induced sepsis model in mice was performed as described by Les sekut et al (J Lab Clin Med 1994; 124, 813-20). Female Swiss albino mice were selected and the body weights were equivalent within each group. The mice were fasted for 20 hours with free access to water. The mice were dosed orally with the test compound suspended in vehicle containing 0.5% Tween 80 in 0.25% Carboxy-methylcellulose sodium salt. The control mice were administered the vehicle alone. After 30 minutes of oral dosing, mice were injected with 500 μg of Lipopolysaccharide (Escherichia coli, LPS: B4 from Siga) in phosphate buffer saline solution into the intraperitoneal cavity of the mice. After 90 minutes of LPS administration mice were bled via retro-orbital sinus puncture. Blood samples were stored overnight at 4° C. Serum samples were collected by centrifuging the samples at 4000 rpm for 15 minutes at 4° C. Immediately the serum samples were analyzed for TNF-α levels using commercially available mouse TNF-α ELISA kit (Amersham Biosciences) and assay was performed by the manufacturer instruction.
ED50 Measurement of TNF Alpha Inhibition in Mice Sepsis Model

[6] = target: T1, PDE4B enzyme (Homo sapiens, UniProt Q07343); experiment: PDE4 assay with pure PDE4B enzyme (Calbiochem); assay type: biochemical
T1 construct: purchased Calbiochem
T1 sequence (Q07343 whole entry, species assumed): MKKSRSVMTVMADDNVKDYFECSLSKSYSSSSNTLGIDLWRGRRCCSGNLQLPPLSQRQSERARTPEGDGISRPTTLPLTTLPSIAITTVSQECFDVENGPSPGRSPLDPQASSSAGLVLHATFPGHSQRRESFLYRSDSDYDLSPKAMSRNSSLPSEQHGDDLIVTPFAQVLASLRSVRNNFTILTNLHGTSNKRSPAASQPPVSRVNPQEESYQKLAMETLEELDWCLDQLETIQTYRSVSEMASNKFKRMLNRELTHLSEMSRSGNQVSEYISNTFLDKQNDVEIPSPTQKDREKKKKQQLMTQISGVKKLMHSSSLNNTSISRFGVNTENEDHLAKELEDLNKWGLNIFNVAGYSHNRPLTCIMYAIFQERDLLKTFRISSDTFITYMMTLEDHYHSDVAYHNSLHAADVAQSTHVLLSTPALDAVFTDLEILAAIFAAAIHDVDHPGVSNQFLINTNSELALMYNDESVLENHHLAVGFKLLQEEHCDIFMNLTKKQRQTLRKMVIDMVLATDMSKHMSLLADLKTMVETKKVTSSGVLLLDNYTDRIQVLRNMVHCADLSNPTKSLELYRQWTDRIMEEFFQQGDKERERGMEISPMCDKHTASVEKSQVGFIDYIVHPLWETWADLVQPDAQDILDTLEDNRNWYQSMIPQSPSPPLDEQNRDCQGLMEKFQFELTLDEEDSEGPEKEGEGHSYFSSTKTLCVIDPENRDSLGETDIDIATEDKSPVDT

[7] = test system: TPA induced dermatitis; experiment: Psoriasis model, TPA induced dermatitis; assay type: in vivo; conditions: mice, topical on the ears
Procedure: Inhibitory Activity in Psoriasis Model TPA induced dermatitis in mice was performed using the protocol described in Eur J Pharmacol 507, 253-259, 2005. Balb/c mice were acclimatized to laboratory conditions 5-7 days prior to the start of the experiment. They were randomly distributed to various groups based on body weight. The baseline ear thickness of the animal's both ears using thickness gauge was measured. For each animal 20 μl of that contains 2.5 μg of TPA was applied with help of micropipettor with disposable tips. Test compound was applied topically to both inner and outer surface of the both the ears i.e. left and right ear with acetone as control after 30 minutes 6 hours and 24 hours after application of TPA (20 μl). Ear thickness was measured after 6 and 24 hours in animals, while for ear weight ears were excised under anesthesia and weighed.

pIC50 [4]: 8.15
inhibition at 10 µM [6]: 76.1%
Compound: NS(=O)(=O)c1cccc(-c2c(-c3ccccc3)nc(C(F)(F)F)nc2N2CCOCC2)c1 [Example 98, 3-[4-Morpholin-4-yl-2-(trifluoromethyl)-6-phenyl-pyrimidin-5-yl]benzenesulfonamide]
inhibition at 1 µM ([1]; Conc. (1 μM)): 40.6%
inhibition at 10 µM ([1]; Conc. (10 μM)): 62%
LPS induced neutrophilia % inhibition at 10 mg/kg [2]: 31.73%
inhibition at 1 µM ([3]; Conc. (1 μM)): 94.1%
inhibition at 10 µM ([3]; Conc. (10 μM)): 94.6%
ED50 [5]: 0.01 mg/kg
Psoriasis-acute TPA induced dermatitis % inhibition Ear Wt [7]: 11.84%
Psoriasis-acute TPA induced dermatitis % inhibition Ear thickness [7]: 41.10%

Source: patent publication US8420653B2, “Pyrimidine compounds and their uses” (Orchid Chemicals & Pharmaceuticals Limited, priority 2008, dated 2013)
